# In patent US7135578B2, “Iminocyclitol inhibitors of hexoaminidase and glycosidase” (The Scripps Research Institute, priority 1999, dated 2006):
# pKi: −log10 of the molar value. Entries after “also recorded” stand apart in the source; their conditions may differ.
# Key:
# [1] = system: β-glucosidase; experiment: Inhibition of β-glucosidase, kinetic analysis by capillary zone electrophoresis; format: biochemical; conditions: sweet almond enzyme, CZE
# Experimental: (§1) Initially, the total volume of assay solution was reduced because this is the only way to reduce the amount of enzyme and substrate used in the assay. The 96-well microtiter plate with a round bottom was used for the assay, and each well was sealed with tape. Thus, the assay was examined and carried out in a total volume of as little as 20 μL containing 1.76 mU of a glycosidase such as β-N-acetylhexosaminidase P. The electrophoresis was carried out using 50 mM borate buffer (pH 9.2˜10.2) as the electrolyte and the progress was monitored at 37° C. The injected volume of approximately 38.4 nL of a reaction mixture contained as little as 3.8 pmol of the substrate p-nitrophenyl (PNP) glycoside, thus the amount of PNP detected was less than 10^−12 mol. The peak corresponding to the p-nitrophenol, which appeared at around 6.5 min. in these conditions, was monitored at 405 nm.
# (§2) The inhibition studies of compounds 1–9 against α- and β-glucosidases (from Saccharomyces sp. and sweet almond, respectively) were carried out. PNP-glycosides of the parent sugars were used as the substrates throughout the assay. The apparent Km and Vmax values for each substrate were calculated from the double-reciplocal plot of standard 1/v −1/[substrate] curve.^18 The Ki values were determined from a replot of the slopes of Lineweaver-Burk plots vs. the inhibitor concentrations.
# Kinetic analyssis of β-glucosidase: To a 1-mL disposable cuvette was added 950 μL of 0.1 M acetate buffer (pH 5.0) solution, 20 μL of inhibitor solution, and 20 μL of 20 mM p-nitrophenyl-β-D-glucopyranoside solution. The solution was well mixed and warmed at 37° C. for 5 min, then 20 μL of the enzyme solution, which was dissolved in ice-cold Tris-HCl buffer (pH 7.8) and diluted with 10 mM phosphate buffer (pH 7.0) containing 0.2% of BSA, was added. The reaction was monitored at 400 nm on a Beckmann DU-70 spectrophotometer for 15 seconds, and the initial rate of hydrolysis was calculated. The same procedure was repeated with three other substrate concentrations. After the initial rates were accumulated, the corresponding Lineweaver-Burk plot at that inhibitor concentration was constructed.
# (§3) Condition of capillary zone electrophoresis: Assays were performed on a Waters Quanta 4000E capillary electrophoresis system, which was equipped with a 53 cm×75 μm fused i.d. silica capillary. Detection was carried out by on-column measurement of u.v. absorption at 405 nm at 7.5 cm from the cathode. The capillary used was pretreated or regenerated with 0.1 M KOH (2 min) and elution buffer before each injection. Samples were loaded by means of hydrostatic pressure at 10 cm height for 30 sec (ca 38.4 nl). […] Pherograms were recorded on Millennium 2010 system from Millipore Corp. […]
# [2] = system: α-glucosidase; experiment: Inhibition of α-glucosidase, kinetic analysis by capillary zone electrophoresis; format: biochemical; conditions: Saccharomyces sp. enzyme, CZE
# Experimental: as §1, §2
# Kinetic analysis of α-glucosidase: To a 1-mL disposable cuvette was added 950 μL of 0.1 M phosphate buffer (pH 7.0) solution, 20 μL of inhibitor solution, and 20 μL of 20 mM p-nitrophenyl-α-D-glucopyranoside solution. The solution was well mixed and warmed at 37° C. for 5 min, then 20 μL of the enzyme solution in 10 mM phosphate buffer (pH 7.0) containing 0.2% of BSA was added. The reaction was monitored at 400 nm on Beckmann DU-70 spectrophotometer for 15 seconds, and the initial rate of hydrolysis was calculated. The same procedure was repeated with three other substrate concentrations. After the initial rates were accumulated, the corresponding Lineweaver-Burk plot at that inhibitor concentration was constructed.
# as §3
# [3] = molecular target: β-N-acetylglucosaminidase; experiment: Inhibition of β-N-acetylglucosaminidase, kinetic analysis by CZE; format: biochemical; conditions: β-N-acetylglucosaminidase from bovine kidney, substrate PNP-GlcNAc, replot of Lineweaver-Burk slopes
# Experimental: as §1
# as §2, with “concentrations. […]” for “concentrations.”
# [4] = system: β-N-acetylhexoaminidases; experiment: Intracellular β-N-acetylhexoaminidases activity (FIG. 12); format: cell-based
# [5] = system: GAGs; experiment: Whole cell assay of GAG concentration; format: cell-based
# [6] = molecular target: T1, β-N-acetylhexosaminidase A (Homo sapiens, UniProt P06865+P07686); experiment: Inhibition of β-N-acetylhexosaminidase A from human placenta; format: biochemical; parameters: Kinetic analysis of β-N-acetylhexosaminidase from human placenta; purchased Sigma Chemical Co. (St. Louis, Mo., USA); host or cells: human placenta; conditions: β-N-acetylhexaoaminidases A from human placenta
# T1 sequence (P06865 89-529): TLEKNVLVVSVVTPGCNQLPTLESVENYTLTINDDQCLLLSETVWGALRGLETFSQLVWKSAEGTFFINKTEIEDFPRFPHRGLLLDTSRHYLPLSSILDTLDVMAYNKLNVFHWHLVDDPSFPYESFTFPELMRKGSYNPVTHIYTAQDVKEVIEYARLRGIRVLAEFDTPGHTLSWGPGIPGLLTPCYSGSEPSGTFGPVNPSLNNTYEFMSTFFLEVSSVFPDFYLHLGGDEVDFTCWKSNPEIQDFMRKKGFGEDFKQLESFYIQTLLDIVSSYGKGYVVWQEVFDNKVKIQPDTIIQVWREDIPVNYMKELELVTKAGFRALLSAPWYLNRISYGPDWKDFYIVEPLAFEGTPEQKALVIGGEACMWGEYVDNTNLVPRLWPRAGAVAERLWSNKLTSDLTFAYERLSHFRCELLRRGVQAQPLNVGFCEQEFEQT
# T1 sequence (P06865 23-74 limits assumed): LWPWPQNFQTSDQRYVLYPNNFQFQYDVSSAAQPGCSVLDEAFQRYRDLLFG
# T1 sequence (P07686 315-556 limits assumed): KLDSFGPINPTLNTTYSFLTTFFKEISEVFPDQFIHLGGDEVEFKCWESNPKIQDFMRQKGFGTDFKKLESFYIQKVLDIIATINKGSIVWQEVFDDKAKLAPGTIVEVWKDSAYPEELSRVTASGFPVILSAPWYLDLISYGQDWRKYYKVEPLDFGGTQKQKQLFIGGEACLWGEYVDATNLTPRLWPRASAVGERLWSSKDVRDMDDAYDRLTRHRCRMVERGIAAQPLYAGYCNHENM
# T1 sequence (P07686 122-311 limits assumed): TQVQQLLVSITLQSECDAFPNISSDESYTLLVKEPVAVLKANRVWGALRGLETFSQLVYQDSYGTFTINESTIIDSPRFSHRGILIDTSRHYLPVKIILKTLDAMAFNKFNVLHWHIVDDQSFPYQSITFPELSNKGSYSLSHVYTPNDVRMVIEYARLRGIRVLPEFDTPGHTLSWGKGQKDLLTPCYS
# T1 sequence (P07686 50-107 limits assumed): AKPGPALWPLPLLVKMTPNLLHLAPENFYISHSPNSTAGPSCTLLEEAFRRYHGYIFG
# Experimental: Condition of capillary zone electrophoresis: Assays were performed on a Waters Quanta 4000E capillary electrophoresis system, which was equipped with a 53 cm×75 μm fused i.d. silica capillary. Detection was carried out by on-column measurement of u.v. absorption at 405 nm at 7.5 cm from the cathode. The capillary used was pretreated or regenerated with 0.1 M KOH (2 min) and elution buffer before each injection. Samples were loaded by means of hydrostatic pressure at 10 cm height for 30 sec (ca 38.4 nl). Electrophoresis was performed at 20 kV using 50 mM sodium borate (pH 9.2 for β-N-Acetylglucosaminidase assays, pH 9.4 for β-glucosidase assays, pH 10.2 for α-glucosidase and β-N-acetylhexosaminidase assay) as electrolyte at a constant temperature of 37° C. Pherograms were recorded on Millennium 2010 system from Millipore Corp.
# Kinetic analysis of β-N-acetylhexosaminidase from human placenta: Incubations were performed in a total volume of 20 μL. Unless otherwise stated, reaction mixtures contained 100 mM citrate buffer (pH 4.5), various amount of p-NP-GlcNAc (0.1–1.1 mM) and various amount of inhibitor with 3.35 mU of β-N-acetylhexosaminidase A and 1.76 mU of β-N-acetylhexosaminidase P. After preincubation for 10 min at 37° C., the reaction was started by the addition of β-N-Acetylglucosaminidase and the reaction mixture was incubated for 15 min at 37° C. […]
# [7] = molecular target: T1, β-N-acetylhexosaminidase A; experiment: β-N-acetylhexosaminidase A inhibition with MUG and MUGS substrates (FIGS. 13A, 13B); format: biochemical
# [8] = molecular target: β-glucosidease from Almond; conditions: β-glucosidase from Almond, reported by Watson et al.; cited from earlier work
# [9] = molecular target: α-glucosidase from baker's yeast; conditions: reported by Watson et al.; cited from earlier work
compound,measurement,setting,value
"OC[C@H]1N[C@H](CNC[C@H]2N[C@H](CO)[C@@H](O)[C@@H]2O)[C@@H](O)[C@@H]1O [Compound 9, N,N-di-{[(2R,3R,4R,5R)-(3,4-hydroxy-5-hydroxymethyl)-pyrrolidine]methyl} amine]",inhibitory activity against β-glucosidase,[1],inhibitory activity at the same level as 1 and 7
same,inhibitory activity against α-glucosidase,[2],as effective as 2
"CC(=O)NC[C@@H]1[C@@H](O)[C@H](O)[C@@H](CO)N1C [Compound 4, (2R,3R,4R,5R)-N-Methyl-(2-acetamidomethyl-3,4-dihydroxy-5-hydroxymethyl)-pyrrolidine]",pKi,[3],6.96
same,intracellular β-N-acetylhexaoaminidases activity,[4],dramatically decreased
same,GAG's intracellular concentration,[5],increase
same,GAGs' extracellular concentration,[5],decrease
same,pKi,[6],7.62
"OC[C@H](O)[C@H]1N[C@H](CO)[C@@H](O)[C@H]1O [Compound 1, (2R,3S,4R,5R,1′R)-5-hydroxymethyl-3,4-dihydroxy-2-(1′,2′-dihydroxy)ethyl-pyrrolidine]",inhibitory activity against β-glucosidase,[1],weak inhibitor
same,inhibitory activity against α-glucosidase,[2],weak inhibitor
"CC1=N[C@@H]2[C@@H](O)[C@H](O)[C@@H](CO)O[C@@H]2S1 [Compound 107, NAG-thioazoline]",inhibition activity towards MUGS compared with MUG,[7],higher inhibition activity to MUG than to MUGS
Sulfated NAG-thiozoline [Compound 108],inhibition activity towards MUGS compared with MUG,[7],higher inhibition activity towards the 6-sulfate-4-methyl-umbelliferyl-β-D-N-acetylglucosamine (MUGS) than to 4-methyl-umbelliferyl-β-D-N-acetylglucosamine (MUG)
"OC[C@H](O)[C@@H]1N[C@H](CO)[C@@H](O)[C@@H]1O [Compound 2, (1′R,2S,3R,4R,5R)-3,4-dihydroxy-2-[1′,2′-dihydroxy-ethyl]-5-hydroxymethyl-pyrrolidine]",inhibitory activity against β-glucosidase,[1],potent inhibitory activities
same,inhibitory activity against α-glucosidase,[2],potent inhibitory activities
same,pKi,[8],2.40
same,pKi,[9],1.07
CC(=O)NC[C@@H](O)[C@H]1N[C@H](CO)[C@@H](O)[C@@H]1O [Compound 6],inhibitory activity against β-glucosidase,[1],potent inhibitors; also recorded: identical inhibitory activity to 2
same,inhibitory activity against α-glucosidase,[2],identical inhibitory activity to 2
